Test results reported in patent publication US6602673B2, “Huntingtin-related therapeutics and bioassay” (University of Massachusetts, priority 1996, dated 2003).

Tested on: human fibroblasts
Experiment: Brefeldin A (BFA) treatment of human fibroblasts, immunofluorescence localization of huntingtin, 58 kDa Golgi protein and tubulin
Assay type: cell-based
Procedure: For the studies described herein, fibroblasts from passage number 10-15 were plated onto coverslips and grown in culture for 24-48 hours. Cells were rinsed briefly with phosphate buffered saline (PBS) and fixed for 10 minutes with 4% paraformaldehyde in PBS at room temperature. After fixation, cells were rinsed multiple times and stored at 4° C. in PBS. Huntingtin was immunolocalized in human fibroblasts using an affinity purified anti-peptide antibody, Ab 2527, at 2-4 μg/ml. In selected experiments, cells were also labeled with a monoclonal antiserum that recognizes clathrin heavy chain (2 μg/ml, Biodesign Int., Kennebunk, Me.), the Golgi-associated 58 kDa protein (ascites serum diluted 1:100, Sigma Chemical Co., St. Louis, Mo.), or human transferrin receptor (5 μg/ml, Zymed Laboratories Inc., San Francisco, Calif.). Cells were made permeable by a 30 minute incubation in 0.1% Triton® X-100 in PBS, rinsed several times, and blocked with 5% normal goat serum for 60 minutes prior to incubation in primary antibodies. All incubations, whether performed with a single type of antibody or two types of antibodies, were carried out overnight at 4° C. and were followed by multiple rinses in PBS. Secondary antibodies were used at a 1:400 dilution. A pooled mixture of either Texas Red goat anti-mouse IgG (Molecular Probes Inc., Eugene, Oreg.) and Bodipy FL anti-rabbit IgG (Molecular Probes Inc, Eugene, Oreg.) or Texas Red goat anti-mouse IgM (Vector Laboratories, Burlingame, Calif.) and Bodipy FL anti-rabbit IgG were used. For immunoperoxidase labeling, cells were rinsed several times after the primary incubation and an avidin/biotin blocking procedure was performed prior to the incubation in secondary antibody. A Vectastain ABC™ kit (Vector Laboratories, Burlingame, Calif.) was employed to localize the primary antibody, and diaminobenzidine was used as a substrate for visualization of the peroxidase reaction product. Sections were examined using conventional immunofluorescence microscopy and a Biorad 1024 laser confocal microscope. Image processing was performed with Adobe Photoshop™.
To further establish the association of huntingtin with Golgi membranes, cells were treated with the fungal metabolite Brefeldin A (BFA).
Cells were briefly rinsed with Hank's balanced salt solution (HBSS) and then incubated in complete medium containing BFA (5 μg/ml; Gibco/BRL). The cells were incubated at either 18° C. or 37° C. for 10 minutes, then rinsed briefly with 50 mM phosphate buffered saline (PBS; pH 7.4) and fixed immediately for 10 minutes with 4% paraformaldehyde in PBS at room temperature.

With C[C@H]1CCC/C=C/[C@@H]2C[C@H](O)C[C@H]2[C@H](O)/C=C/C(=O)O1 [BFA, Brefeldin A] the “Distribution of tubulin in BFA-treated cells” value (compared to untreated cells) was “unchanged”, the “Huntingtin localization after mild BFA treatment” value (mild BFA treatment, 5 μg for 10 min at 18° C., human fibroblasts) was “fragmented and dispersed” and the “Huntingtin localization after more severe BFA treatment” value (more severe BFA treatment, human fibroblasts) was “obliterated”. The “Localization of huntingtin and the 58 kDa protein in the presence of bfa (figure legend)” value (normal fibroblasts, +bfa, FIGS. 3C and 3D) was “more widely dispersed from the nucleus and the Golgi-membrane architecture is disrupted”.
